Measurements as given in patent publication US12384800B2, “Antitumoral compounds” (priority 2017, dated 2025).
Values joined by “and” are separate entries in the source; they are usually repeats but may differ in a detail not shown here. Equal entries are not always repeated.

Tests used:
[1] = MTMD (Maximum Tolerated Multiple Dose) determination, iv weekly x 3; type: in vivo; conditions: mice; iv/Q7d × 3
Description: (§1) Female CD-1 or Athymic Nude-Fox1 nu/nu mice (Envigo) were utilized for all experiments. […] Animals were acclimated for five days prior to being individually tattoo-identified. Animal protocols were reviewed and approved according to the regional Institutional Animal Care and Use Committees.
(§2) Mice were randomly allocated into experimental groups and intravenously administered, once for the MTD (Maximum Tolerated Dose) determination or one administration a week during three consecutive weeks, for the MTMD (Maximum Tolerated Multiple Dose) determination study. The animals were administered with white formulation or with compound dissolved in the experimental formulation at different concentrations. The volume administered was always […]. Once administered, animals were monitored for clinical signs of systemic toxicity, changes in body weight and mortality up to 14 days after the administration.

[2] = MTD (Maximum Tolerated Dose) determination, single iv administration; type: in vivo; conditions: female, mouse, in vivo; mice; iv/SD (single dose); monitored up to 14 days
Description: as §1, §2

[3] = test system: MDA-MB-231 cells (breast adenocarcinoma); test: cells; conditions: Homo sapiens, MDA-MB-231, 72 h
Method in brief: (§3)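 Cells seeded at 5000/well, attached 18 h, then exposed 72 h to ten 2/5 serial dilutions (10 to 0.003 μg/mL; 1% DMSO final) in triplicate; time-zero plate fixed. SRB staining after glutaraldehyde fixation; growth effects by NCI algorithm, four-parameter logistic fit.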

[4] = test system: A549 cells (lung carcinoma, NSCLC); test: cells; conditions: Homo sapiens, A549, 72 h
Method in brief: as §3

[5] = test system: HT29 cells (colorectal adenocarcinoma); test: cells; conditions: Homo sapiens, HT-29, 72 h
Method in brief: as §3

[6] = test system: PSN1 cells (pancreas adenocarcinoma); test: cells; conditions: Homo sapiens, PSN1, 72 h
Method in brief: as §3

Lewis lung carcinoma = conditions: U.S. Pat. No. 5,149,804; cited from earlier work
P388 lymphoma = conditions: U.S. Pat. No. 5,149,804; cited from earlier work
B16 melanoma = conditions: U.S. Pat. No. 5,149,804; cited from earlier work
H460 tumors = test: Human lung (NSCLC) xenograft, tumor volume
MDA-MB-231 tumors = test: Human breast xenograft, tumor volume
Description: (§4) Female athymic nu/nu mice (Harlan Laboratories Models, S.L. Barcelona, Spain or Envigo, Spain) were utilized for all experiments. Animal were housed in individually ventilated cages Sealsafe® Plus, Techniplast S.P.A.), up to ten per cage on a 12-hour light-dark cycle at 21-23° C. and 40-60% humidity. […] Animals were acclimated for at least 5 days prior to tumor implantation with a tumor cell suspension.
MDA-MB-231 cells were maintained in vitro at 37° C. with 5% CO2 in Dulbecco's Modified Eagle's Medium (Sigma-Aldrich, Co). Culture cells were passaged every 3 to 5 days upon reaching confluence.
(§5) Treatment tolerability was assessed by monitoring body weight evolution, clinical signs of systemic toxicity, as well as evidences of local damage in the injection site.
(§6) In Xenograft Studies with Other Cell Lines: • Tumor volume was calculated using the equation (a·b^2)/2, where a: length (longest diameter) and b: width (shortest diameter) were measured in mm by using digital caliper (Fowler Sylvac, S235PAT).
(§7) Treatments producing >20% lethality and/or 20% net body weight loss were considered toxic.

A2780 tumors = test: Human ovarian xenograft, tumor volume
HT1080 tumors = test: Human fibrosarcoma xenograft, total diameter (tumor + leg)
Description: as §4
HT1080 cells were maintained in vitro at 37° C. with 5% CO2 in Minimum Essential Medium Eagle (MEME) (Sigma-Aldrich, Co). Each animal was orthotopically implanted into gastroecnemius muscle by an intramuscular injection using a 26G needle and a 1 cc syringe at 4-6 weeks of age, with 10×10^6 HT1080 cells, suspended in serum free medium, without antibiotics.
as §5
In xenograft studies with HT1080 cell line: • Total diameter (tumor+leg) measurements were determined by using digital caliper (Fowler Sylvac, S235PAT).
as §7

[7] = test system: xenografted human tumor cell lines (breast, kidney and ovarian cancer); conditions: xenografted human tumor cell lines in mice (breast, kidney and ovarian cancer); cited from earlier work
HGC27 tumors = test: Human gastric xenograft, tumor volume
Description: as §4
HGC27 cells were maintained in vitro at 37° C. with 5% CO2 in Iscove's Modified Dulbecco's Medium (Sigma Aldrich, Co). Culture cells were passage every 3 to 5 days on reaching confluence. Each animal was subcutaneously implanted (on the right flank using 26G needle and a 1 cc syringe) at 4-6 weeks of age with 5×10^6 HGC-27 cells suspended in 0.05 mL of a solution consisting of 50% Matrigel® (Corning Incorporated Life Sciences), 50% medium without serum or antibiotics.
as §5, §6, §7

For `COc1ccc2[nH]c3c(c2c1)C[C@@H](CO)N[C@]31CS[C@@H]2c3c(OC(C)=O)c(C)c4c(c3[C@H](COC1=O)N1[C@@H]2[C@H]2c3c(cc(C)c(OC)c3O)C[C@@H]([C@@H]1O)N2C)OCO4` [Compound 19-S], the MTMD [1] was 0.75 mg/kg, the MTD at 14 days [2] was 0.5 mg/kg and the GI50 [3] was 1.96 nM. For the same molecule, the CC50 ([3]; read-out: LC50) was 11 nM, the IC (total growth inhibition) ([3]; read-out: TGI) was 0.00331 µM and the GI50 [4] was 3.07 nM. The CC50 ([4]; read-out: LC50) was > 123 nM, the IC (total growth inhibition) ([4]; read-out: TGI) was 0.00331 µM and the GI50 [5] was 1.35 nM. The CC50 ([5]; read-out: LC50) was > 123 nM, the IC (total growth inhibition) ([5]; read-out: TGI) was 0.0016 µM and the GI50 [6] was 2.95 nM. The CC50 ([6]; read-out: LC50) was > 123 nM and the IC (total growth inhibition) ([6]; read-out: TGI) was 0.00319 µM.

In the case of `COc1c(C)cc2c(c1O)[C@@H]1[C@@H]3[C@@H]4SC[C@]5(NCCc6c5[nH]c5ccccc65)C(=O)OC[C@@H](c5c6c(c(C)c(OC(C)=O)c54)OCO6)N3[C@@H](O)[C@H](C2)N1C` [ET-736, Ecteinascidin 736], the “protection of mice in vivo” value (Lewis lung carcinoma) is given as “protects mice in vivo at very low concentrations”, the MTMD [1] is given as 0.5 mg/kg and the “protection of mice in vivo” value (P388 lymphoma) is given as “protects mice in vivo at very low concentrations”. For the same molecule, the “protection of mice in vivo” value (B16 melanoma) was “protects mice in vivo at very low concentrations”.

With `COc1ccc2[nH]c3c(c2c1)CCN[C@]31CS[C@@H]2c3c(OC(C)=O)c(C)c4c(c3[C@H](COC1=O)N1[C@@H]2[C@H]2c3c(cc(C)c(OC)c3O)C[C@@H]([C@@H]1O)N2C)OCO4` [PM01183, reference compound] the “Median Tumor Volume” value (H460 tumors; Day 2) was 457.0 mm^3, the “Median Tumor Volume” value (H460 tumors; Day 4) was 861.5 mm^3 and the “Median Tumor Volume” value (H460 tumors; Day 7) was 940.4 mm^3 and 1004.0 mm^3 and 1280.2 mm^3. The “Median Tumor Volume” value (H460 tumors; Day 9) was 1210.3 mm^3 and 1211.3 mm^3 and 1424.9 mm^3, the “Median Tumor Volume” value (H460 tumors; Day 11) was 1433.8 mm^3 and 1969.9 mm^3 and the “Median Tumor Volume” value (H460 tumors; Day 12) was 1515.4 mm^3. The “Median Tumor Volume” value (H460 tumors; Day 14) was 1529.5 mm^3 and 1633.3 mm^3, the “Median Tumor Volume” value (H460 tumors; Day 16) was 1723.9 mm^3 and the “Median Tumor Volume” value (H460 tumors; Day 19) was 2112.3 mm^3. For the same molecule, the “Median Tumor Volume” value (H460 tumors; Day 21) was 2409.4 mm^3, the “Median Tumor Volume” value (MDA-MB-231 tumors; Day 4) was 177.2 mm^3 and the “Median Tumor Volume” value (MDA-MB-231 tumors; Day 7) was 189.0 mm^3 and 185.9 mm^3 and 186.3 mm^3. The “Median Tumor Volume” value (MDA-MB-231 tumors; Day 11) was 250.7 mm^3, the “Median Tumor Volume” value (MDA-MB-231 tumors; Day 14) was 230.1 mm^3 and 290.8 mm^3 and 266.1 mm^3 and the “Median Tumor Volume” value (MDA-MB-231 tumors; Day 18) was 327.7 mm^3. For the same molecule, the “Median Tumor Volume” value (MDA-MB-231 tumors; Day 21) was 305.9 mm^3 and 337.9 mm^3 and 391.0 mm^3, the “Median Tumor Volume” value (MDA-MB-231 tumors; Day 25) was 493.1 mm^3 and the “Median Tumor Volume” value (MDA-MB-231 tumors; Day 28) was 535.8 mm^3 and 507.4 mm^3 and 627.3 mm^3. The “Median Tumor Volume” value (MDA-MB-231 tumors; Day 32) was 789.0 mm^3, the “Median Tumor Volume” value (MDA-MB-231 tumors; Day 35) was 819.7 mm^3 and 796.1 mm^3 and the “Median Tumor Volume” value (MDA-MB-231 tumors; Day 36) was 1022.0 mm^3. For the same molecule, the “Median Tumor Volume” value (MDA-MB-231 tumors; Day 39) was 1294.2 mm^3, the “Median Tumor Volume” value (MDA-MB-231 tumors; Day 42) was 962.7 mm^3 and 1062.5 mm^3 and 1643.3 mm^3 and the “Median Tumor Volume” value (MDA-MB-231 tumors; Day 46) was 1658.9 mm^3. For the same molecule, the “Median Tumor Volume” value (MDA-MB-231 tumors; Day 49) was 1301.3 mm^3 and 1416.3 mm^3 and 1938.0 mm^3, the “Median Tumor Volume” value (MDA-MB-231 tumors; Day 52) was 2199.4 mm^3 and the “Median Tumor Volume” value (MDA-MB-231 tumors; Day 56) was 1673.3 mm^3. For the same molecule, the “Median Tumor Volume” value (MDA-MB-231 tumors; Day 63) was 1811.9 mm^3, the “Median Tumor Volume” value (A2780 tumors; Day 2) was 235.5 mm^3 and 236.5 mm^3 and the “Median Tumor Volume” value (A2780 tumors; Day 3) was 454.5 mm^3. For the same molecule, the “Median Tumor Volume” value (A2780 tumors; Day 4) was 463.2 mm^3, the “Median Tumor Volume” value (A2780 tumors; Day 5) was 671.2 mm^3 and 772.1 mm^3 and the “Median Tumor Volume” value (A2780 tumors; Day 7) was 1048.9 mm^3 and 1161.5 mm^3 and 986.3 mm^3. For the same molecule, the “Median Tumor Volume” value (A2780 tumors; Day 9) was 1451.4 mm^3, the “Median Tumor Volume” value (A2780 tumors; Day 10) was 1615.6 mm^3 and the “Median Tumor Volume” value (A2780 tumors; Day 11) was 2062 mm^3 and 2062.0 mm^3. The “Median Tumor Volume” value (A2780 tumors; Day 12) was 2020.3 mm^3 and 1703.0 mm^3, the “Median Tumor Volume” value (A2780 tumors; Day 14) was 2029.3 mm^3 and the “Total diameter (tumor + leg)” value (HT1080 tumors; Day 2) was 9.8 mm. The “Total diameter (tumor + leg)” value (HT1080 tumors; Day 2, iv Days 0, 7 and 14, PM01183 […], Compound D 0.5 mg/kg) was 9.2 mm, the “Total diameter (tumor + leg)” value (HT1080 tumors; Day 5) was 9.7 mm and the “Total diameter (tumor + leg)” value (HT1080 tumors; Day 7) was 11.4 mm. The “Total diameter (tumor + leg)” value (HT1080 tumors; Day 7, iv Days 0, 7 and 14, PM01183 […], 4-R 0.30 mg/kg) was 11.2 mm, the “Total diameter (tumor + leg)” value (HT1080 tumors; Day 7, iv Days 0, 7 and 14, PM01183 […], Compound D 0.5 mg/kg) was 12.2 mm and the “Total diameter (tumor + leg)” value (HT1080 tumors; Day 9) was 12.7 mm. For the same molecule, the “Total diameter (tumor + leg)” value (HT1080 tumors; Day 9, iv Days 0, 7 and 14, PM01183 […], 4-R 0.30 mg/kg) was 12.3 mm, the “Total diameter (tumor + leg)” value (HT1080 tumors; Day 9, iv Days 0, 7 and 14, PM01183 […], Compound D 0.5 mg/kg) was 12.6 mm and the “Total diameter (tumor + leg)” value (HT1080 tumors; Day 12) was 13.7 mm. The “Total diameter (tumor + leg)” value (HT1080 tumors; Day 12, iv Days 0, 7 and 14, PM01183 […], Compound D 0.5 mg/kg) was 13.1 mm, the “Total diameter (tumor + leg)” value (HT1080 tumors; Day 14) was 14.6 mm and the “Total diameter (tumor + leg)” value (HT1080 tumors; Day 14, iv Days 0, 7 and 14, PM01183 […], 4-R 0.30 mg/kg) was 14.6 mm. The “Total diameter (tumor + leg)” value (HT1080 tumors; Day 14, iv Days 0, 7 and 14, PM01183 […], Compound D 0.5 mg/kg) was 14.6 mm, the “Total diameter (tumor + leg)” value (HT1080 tumors; Day 16) was 15.5 mm and the “Total diameter (tumor + leg)” value (HT1080 tumors; Day 16, iv Days 0, 7 and 14, PM01183 […], Compound D 0.5 mg/kg) was 14.5 mm. For the same molecule, the “Total diameter (tumor + leg)” value (HT1080 tumors; Day 19) was 15.6 mm, the “Total diameter (tumor + leg)” value (HT1080 tumors; Day 19, iv Days 0, 7 and 14, PM01183 […], Compound D 0.5 mg/kg) was 15.0 mm and the “Total diameter (tumor + leg)” value (HT1080 tumors; Day 21) was 18.0 mm. The “Total diameter (tumor + leg)” value (HT1080 tumors; Day 21, iv Days 0, 7 and 14, PM01183 […], 4-R 0.30 mg/kg) was 15.1 mm, the “Total diameter (tumor + leg)” value (HT1080 tumors; Day 21, iv Days 0, 7 and 14, PM01183 […], Compound D 0.5 mg/kg) was 18.0 mm and the “Total diameter (tumor + leg)” value (HT1080 tumors; Day 23, iv Days 0, 7 and 14, PM01183 […], 4-R 0.30 mg/kg) was 16.3 mm. For the same molecule, the in vivo activity [7] was “significant in vivo activity”, the “Median Tumor Volume” value (HGC27 tumors; Day 2) was 317.5 mm^3 and 372.4 mm^3 and 395.6 mm^3 and the “Median Tumor Volume” value (HGC27 tumors; Day 5) was 404.0 mm^3 and 474.1 mm^3 and 572.4 mm^3. For the same molecule, the “Median Tumor Volume” value (HGC27 tumors; Day 7) was 485.7 mm^3 and 571.8 mm^3 and 766.6 mm^3, the “Median Tumor Volume” value (HGC27 tumors; Day 9) was 604.6 mm^3 and 787.9 mm^3 and 950.7 mm^3 and the “Median Tumor Volume” value (HGC27 tumors; Day 12) was 760.8 mm^3 and 951.1 mm^3. The “Median Tumor Volume” value (HGC27 tumors; Day 14) was 789.6 mm^3 and 1064.4 mm^3 and 1199.4 mm^3, the “Median Tumor Volume” value (HGC27 tumors; Day 16) was 719.5 mm^3 and 1346.1 mm^3 and 1353.1 mm^3 and the “Median Tumor Volume” value (HGC27 tumors; Day 19) was 895.9 mm^3 and 1691.8 mm^3 and 1294.3 mm^3. For the same molecule, the “Median Tumor Volume” value (HGC27 tumors; Day 21) was 1051.3 mm^3 and 1920.0 mm^3 and 1335.1 mm^3, the “Median Tumor Volume” value (HGC27 tumors; Day 23) was 2011.4 mm^3 and 1320.3 mm^3 and the “Median Tumor Volume” value (HGC27 tumors; Day 26) was 1901.2 mm^3 and 2102.2 mm^3 and 1364.5 mm^3. For the same molecule, the “Median Tumor Volume” value (HGC27 tumors; Day 28) was 2028.9 mm^3, the “Median Tumor Volume” value (HGC27 tumors; Day 30) was 1671.9 mm^3 and the “Median Tumor Volume” value (HGC27 tumors; Day 33) was 2009.2 mm^3.
